Test results published in US8759579B2, “Cyclobutyl sulfones as notch sparing gamma secretase inhibitors” (Merck Sharp & Dohme Corp., priority 2008, dated 2014).
Entries after “also recorded” stand apart in the source; their conditions may differ.

Tests used:
[1] = covalent protein binding assay with liver microsomes; assay type: in vitro ADME; conditions: radiolabeled compound incubated with human liver microsomes
Method: MRK-560 and Example 2 were tested in a covalent protein binding assay which is predictive of drug toxicity. The potential of drug candidates to cause covalent binding to proteins is evaluated by incubation of the radiolabeled version of the compound in question with liver microsomes. A semi-automated method based on Brandel Harvester technique is then used to measure the formation of covalent adducts of the test compound to liver proteins binding (Ref. Day et. al, J Pharmacol Toxicol Methods. 52, 278-85, 2005).

[2] = target: T1, pregnane X receptor (PXR) (Homo sapiens, UniProt O75469); assay: PXR assay (CYP3A4-SEAP transactivation assay, PCSTA); assay type: cell-based; conditions: HEP G2 cells
T1 construct: expressed in transfected cells; host or cells: HEP G2
T1 sequence (O75469 1-434): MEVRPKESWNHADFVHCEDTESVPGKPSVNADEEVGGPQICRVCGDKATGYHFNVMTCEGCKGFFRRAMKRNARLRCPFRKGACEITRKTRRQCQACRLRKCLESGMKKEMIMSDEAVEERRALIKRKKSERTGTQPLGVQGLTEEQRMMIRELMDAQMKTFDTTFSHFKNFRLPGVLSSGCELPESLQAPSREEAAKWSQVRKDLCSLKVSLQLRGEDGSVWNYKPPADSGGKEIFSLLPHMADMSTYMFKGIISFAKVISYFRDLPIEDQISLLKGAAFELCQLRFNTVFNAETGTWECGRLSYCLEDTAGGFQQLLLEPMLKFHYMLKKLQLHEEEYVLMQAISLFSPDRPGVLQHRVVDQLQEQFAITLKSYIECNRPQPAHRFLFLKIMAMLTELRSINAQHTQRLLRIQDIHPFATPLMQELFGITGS
T1 sequence (P19793 1-462 partner): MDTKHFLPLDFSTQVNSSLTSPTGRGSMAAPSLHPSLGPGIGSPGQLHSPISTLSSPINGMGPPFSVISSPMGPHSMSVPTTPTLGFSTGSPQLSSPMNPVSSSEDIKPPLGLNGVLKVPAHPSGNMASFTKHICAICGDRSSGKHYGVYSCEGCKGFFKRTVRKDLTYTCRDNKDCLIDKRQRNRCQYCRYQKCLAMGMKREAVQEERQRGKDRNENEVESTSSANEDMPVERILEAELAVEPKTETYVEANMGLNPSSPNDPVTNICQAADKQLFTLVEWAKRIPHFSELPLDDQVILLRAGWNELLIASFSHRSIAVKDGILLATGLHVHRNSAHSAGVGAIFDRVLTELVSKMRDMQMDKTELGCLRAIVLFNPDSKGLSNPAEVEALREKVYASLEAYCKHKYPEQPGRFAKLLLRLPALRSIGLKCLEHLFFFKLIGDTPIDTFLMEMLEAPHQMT
Source text: The CYP3A4-SEAP transactivation assay (PCSTA) effectively and rapidly evaluates compounds for their potential to induce cytochrome P450 CYP3A (human CYP3A4 or rat CYP3A1). The reporter construct contains regulatory regions from the CYP3A4 gene positioned just upstream of a secreted alkaline phosphatase (SEAP) gene. The human PXR nuclear receptor has been modified at the 5′-end so that methionine is the initiating amino acid replacing leucine found in the wild-type sequence. HEP G2 cells are transfected with the PXR plasmid (human or rat) and the reporter plasmid. Read-out for the induction of CYP3A4 consists of a SEAP calorimetric assay with para-nitro-phenyl phosphate (pNPP) as the substrate. Five point dose-response curves in duplicate are then generated with each point corresponding to the rate of conversion of pNPP to pNP by SEAP. For the human PCSTA, rifampicin is used as the positive control and 100% induction is based upon the maximum induction produced by rifampicin at 10 μM.

[3] = tested on: ε/S3-site cleavage of γ-secretase substrates (APP-GVP, NotchΔE-GVP, E-cadherin-GVP, CD44-GVP); assay: ICD transactivation assay (intracellular domain release of γ-secretase substrates); assay type: cell-based; conditions: HEK cells, 1 μM, 48 hours
Source text: ICD Transactivation (Assay Quantitates Intracellular Domain Release of a Panel of γ-Secretase Substrates in Cell Lines)
A Firefly luciferase based transactivation assay is used to measure inhibition of ε/S3-site cleavage of γ-secretase substrates. This assay involves the use of chimeric substrates harboring a GAL4/VP16 (GVP) transactivation domain fused to the intracellular domain (ICD): APP-GVP, NotchΔE-GVP, E-cadherin-GVP and CD44-GVP. Upon cleavage and release of ICDs, the GVP domain drives the expression of the luciferase gene under the control of the UAS promoter. In this assay, HEK cells were transiently co-transfected with the chimeric substrate along with a UAS promoter driven luciferase and β-galactosidase (transfection control). Upon cleavage by γ-secretase, the released ICD-GVP translocates to the nucleus to drive the expression of the UAS-luciferase gene. The activity of luciferase in these cells is directly proportional to the amount of γ-secretase-cleaved ICDs. Luciferase activity is determined by the standard techniques of luciferin addition to lysed cells and measurement of total luminescence. In addition, to account for the differences in transfection efficiencies an absorbance based β-galactosidase enzyme assay is performed to normalize the luminescence read-out.

[4] = tested on: γ-secretase substrates NotchΔE, E-cadherin, SCN2b and CD43 in HEK293 cells; assay: Full length γ-secretase substrates, immunoblot of cell lysates; assay type: cell-based; conditions: titrated concentrations with TPA
Method: Assessing Full Length γ-Secretase Substrates (Assay Qualitatively Assesses the Processing of a Panel of γ-Secretase Substrates)
Cells are plated and treated overnight with titrated compound and the phorbol ester, TPA. Since all of the proteins undergo regulated membrane proteolysis characterized by an initial ectodomain shedding event followed by the intramembraneous cleavage of the […] fragment (CTF) by γ-secretase, TPA induces the initial cleavage event producing the substrate for γ-secretase. The effect of compounds on γ-secretase activity in relation to these substrates is measured by tracking the processing of the V5 tagged CTFs by Western blot analysis. Accumulation of the CTFs indicates inhibition of γ-secretase activity.

[5] = tested on: γ-secretase complex; assay: Compound binding assay (displacement of tritiated γ-secretase inhibitor tracers); conditions: semi-purified γ-secretase complex, increasing concentrations
Method: Compound Binding: (Assay Quantitates In Vitro Displacement of Bound γ-Secretase Inhibitor Tracers)
All radioligand binding experiments are performed using CHAPSO-solubilized HEK293 (gammaNRCF8) P2 membranes stably over expressing recombinant gamma secretase. For radioligand binding, solubilized enzyme is incubated in the presence of tritiated inhibitors. Nonspecific binding is determined by adding an excess of unlabeled inhibitor to the reaction, and serial dilutions of the tritiated ligands are used to obtain saturation binding isotherm. Bound ligand is separated from free ligand by adsorption of the enzyme complex to polyethyleneimine-coated glass fiber filter plates and rapid filtration in a cell harvester followed by washing. After drying plates, scintillant is added, and the plates are read on a Microplate Scintillation counter. Binding competition assay is performed by incubating serial dilutions of various inhibitors in the presence of 1 nM ^3H-labeled compound Reference Example L-458 (transition state inhibitor) or 4 nM ^3H-labeled compound Reference Example L-881 (non-transition state inhibitor). To determine the antagonist competitiveness of various inhibitors, respective ^3H tracer doss-response curves are analyzed in presence of different concentrations of these compounds.

[6] = tested on: APP and Notch processing pathway; conditions: literature report; cited from earlier work
[7] = tested on: Tg2576 mouse; conditions: cited from earlier work

O=S(=O)(NC1CCC(c2cc(F)ccc2F)(S(=O)(=O)c2ccc(Cl)cc2)CC1)C(F)(F)F (stereo not shown) [MRK-560]
covalent protein binding (human microsomes) [1]: 1308 pmol/mg
EC50 [2]: 0.617 µM
ICD release of γ-secretase substrates (ε/S3-cleavage) [3]: inhibited ICD release of all examined substrates
accumulation of CTFs (immunoblot) ([4]; HEK293 cells overexpressing E-cadherin, SCN2b, CD43): caused accumulation of CTFs; also recorded: SCN2b-, ECAD- and CD43-CTF accumulation
NICD generation (immunoblot) ([4]; HEK293 cells overexpressing NotchΔE): inhibited NICD generation
displacement of tritiated tracer L-458 (transition state) [5]: partial
displacement of tritiated tracer L-881 (non transition state) [5]: full
separation between in vitro inhibition of APP and Notch processing pathway [6]: little or no separation
effects on amyloid plaque deposition [7]: beneficial effects on amyloid plaque deposition
toxicity related to changes in the Notch signaling pathway [7]: absence of toxicity
